Data as given in patent US9751878B2, “Tetrahydronaphthyridine somatostatin receptor 5 antagonists” (Takeda Pharmaceutical Company Limited, priority 2013, dated 2017).

Target: T1, human SSTR5 (Homo sapiens, UniProt P35346)
T1 construct: expressed in transfected cells
Assay: Evaluation of human SSTR5 antagonist activity using intracellular cAMP concentration as index
Format: cell-based
Settings: 1 μM test compound; CHO (dhfr-) cells stably expressing human SSTR5; 0.1 nM somatostatin 28, 0.3 μM forskolin; cAMP HTRF; read-out: Inhibition rate against SSTR5 at 1 μM
Method: Evaluation of Human SSTR5 Antagonist Activity Using Intracellular cAMP Concentration as Index
The intracellular cAMP concentration was measured using HTRF cAMP dynamic 2 kit (Cisbio Bioassays). Each test compound diluted with an assay buffer (HBSS (Invitrogen Corp.) containing 5 mM HEPES (pH 7.5) (Invitrogen Corp.), 0.1% fatty-acid free BSA (Sigma-Aldrich Corp.), and 500 μM IBMX (Wako Pure Chemical Industries, Ltd.)) was added at a concentration of 2 μL/well to a 384-well white plate (Greiner Bio-One Co., Ltd.) to give the final concentration of 1 μM. A frozen stock of CHO (dhfr-) cells stably expressing the human SSTR5 gene (Accession No. NM_001053) was thawed in a thermostat bath of 37° C. and suspended in a subculture medium (MEM alpha (Wako Pure Chemical Industries, Ltd.), 10% dialyzed serum (Gemini Bio-Products), and 50 μg/mL gentamicin (Invitrogen Corp.). After centrifugation of the cell suspension, the cells were resuspended in an assay buffer and added at a concentration of 2 μL/well (about 4,000 cells/well) to the plate. The compound and the cells were incubated for 15 minutes, and then, an assay buffer containing 0.1 nM (final concentration) somatostatin 28 (Toray Research Center) and 0.3 μM (final concentration) forskolin (Wako Pure Chemical Industries, Ltd.) was added thereto at a concentration of 2 μL/well, followed by incubation at room temperature for 30 minutes. cAMP-d2 and anti-cAMP-cryptate were each added thereto at a concentration of 3 μL/well. The plate was left standing at room temperature for 60 minutes. Then, the fluorescence resonance energy transfer (FRET) intensity was measured using Multi-label reader Envision (PerkinElmer). The FRET intensity of the wells supplemented with the test compound group was converted to a cAMP concentration using a calibration curve prepared from the FRET intensity of a well group containing an assay buffer supplemented with an arbitrary concentration of cAMP. The inhibitory activity of each compound was calculated according to the following expression: Inhibitory activity (%)=(C−B)/(A−B)×100 A: cAMP concentration calculated from the wells supplemented with 0.3 μM forskolin B: cAMP concentration calculated from the wells supplemented with 0.3 μM forskolin and 0.1 nM somatostatin 28 C: cAMP concentration calculated from the wells supplemented with 0.3 μM forskolin, 0.1 nM somatostatin 28, and 1 μM test compound

T1 sequence (P35346 whole entry): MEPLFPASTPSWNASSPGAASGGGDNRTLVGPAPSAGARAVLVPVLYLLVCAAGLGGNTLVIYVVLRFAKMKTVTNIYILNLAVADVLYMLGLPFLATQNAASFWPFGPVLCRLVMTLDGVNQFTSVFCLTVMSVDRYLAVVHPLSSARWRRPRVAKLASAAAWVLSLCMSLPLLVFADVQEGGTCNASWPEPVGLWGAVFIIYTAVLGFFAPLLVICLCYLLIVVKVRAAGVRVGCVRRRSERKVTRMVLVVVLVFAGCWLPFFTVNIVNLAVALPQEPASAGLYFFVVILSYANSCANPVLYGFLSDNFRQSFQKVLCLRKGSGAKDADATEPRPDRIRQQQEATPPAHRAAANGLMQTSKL

Compound	inhibition at 1 µM
CCOc1cc(CN2CCC(N3CCc4ncc(C(=O)O)cc4C3=O)C2)cc(OCC)c1-c1ccc(F)cc1 (stereo not shown) [Example 34, 6-(1-((2,6-Diethoxy-4′-fluorobiphenyl-4-yl)methyl)pyrrolidin-3-yl)-5-oxo-5,6,7,8-tetrahydro-1,6-naphthyridine-3-carboxylic acid]	102%
Cc1nc2c(cc1C(=O)O)C(=O)N(C1CCN(Cc3cc(C4CC4)c(-c4ccc(F)cc4)nc3OC(C)C)CC1)CC2 [Example 6, 6-(1-((5-Cyclopropyl-6-(4-fluorophenyl)-2-isopropoxypyridin-3-yl)methyl)piperidin-4-yl)-2-methyl-5-oxo-5,6,7,8-tetrahydro-1,6-naphthyridine-3-carboxylic acid]	88%
CCCc1nc2c(cc1C(=O)O)C(=O)N(C1CCN(Cc3cc(C4CC4)c(-c4ccc(F)cc4)cc3OC)CC1)CC2 [Example 42, 6-(1-((2-Cyclopropyl-4′-fluoro-5-methoxybiphenyl-4-yl)methyl)piperidin-4-yl)-5-oxo-2-propyl-5,6,7,8-tetrahydro-1,6-naphthyridine-3-carboxylic acid]	136%
CCOc1cc(-c2ccc(F)cc2)c(C2CC2)cc1CN1CCC(N2CCc3nc(COC)c(C(=O)O)cc3C2=O)CC1 [Example 47, 6-(1-((2-Cyclopropyl-5-ethoxy-4′-fluorobiphenyl-4-yl)methyl)piperidin-4-yl)-2-(methoxymethyl)-5-oxo-5,6,7,8-tetrahydro-1,6-naphthyridine-3-carboxylic acid]	106%
CCOc1cc(-c2ccc(F)cc2F)c(C2CC2)cc1CN1CCC(N2CCc3nc(COC)c(C(=O)O)cc3C2=O)CC1 [Example 48, 6-(1-((2-Cyclopropyl-5-ethoxy-2′,4′-difluorobiphenyl-4-yl)methyl)piperidin-4-yl)-2-(methoxymethyl)-5-oxo-5,6,7,8-tetrahydro-1,6-naphthyridine-3-carboxylic acid]	99%
Cc1nc2c(cc1C(=O)O)C(=O)N(C1CCN(Cc3cc(C4CC4)c(-c4ccc(F)cc4)cc3OC(C)C)CC1)CC2 [Example 7, 6-(1-((2-Cyclopropyl-4′-fluoro-5-isopropoxybiphenyl-4-yl)methyl)piperidin-4-yl)-2-methyl-5-oxo-5,6,7,8-tetrahydro-1,6-naphthyridine-3-carboxylic acid]	88%
CCOc1cc(CN2CCC(N3CCc4nc(C)c(C(=O)O)cc4C3=O)CC2)cc(C2CC2)c1-c1ccc(F)cc1 [Example 1, 6-(1-((2-Cyclopropyl-6-ethoxy-4′-fluorobiphenyl-4-yl)methyl)piperidin-4-yl)-2-methyl-5-oxo-5,6,7,8-tetrahydro-1,6-naphthyridine-3-carboxylic acid]	91%
CCCc1nc2c(cc1C(=O)O)C(=O)N(C1CCN(Cc3cc(C4CC4)c(-c4ccc(F)cc4F)c(F)c3OC)CC1)CC2 [Example 65, 6-(1-((6-Cyclopropyl-2,2′,4′-trifluoro-3-methoxybiphenyl-4-yl)methyl)piperidin-4-yl)-5-oxo-2-propyl-5,6,7,8-tetrahydro-1,6-naphthyridine-3-carboxylic acid]	86%
CCOc1cc(-c2ccc(F)cc2)c(C2CC2)cc1CN1CCC(N2CCc3nc(C4CC4)c(C(=O)O)cc3C2=O)CC1 [Example 3, 2-Cyclopropyl-6-(1-((2-cyclopropyl-5-ethoxy-4′-fluorobiphenyl-4-yl)methyl)piperidin-4-yl)-5-oxo-5,6,7,8-tetrahydro-1,6-naphthyridine-3-carboxylic acid]	115%
CCCc1nc2c(cc1C(=O)O)C(=O)N(C1CCN(Cc3cc(C4CC4)c(-c4ccc(F)c(F)c4)cc3OC(C)C)CC1)CC2 [Example 39, 6-(1-((2-Cyclopropyl-3′,4′-difluoro-5-isopropoxybiphenyl-4-yl)methyl)piperidin-4-yl)-5-oxo-2-propyl-5,6,7,8-tetrahydro-1,6-naphthyridine-3-carboxylic acid]	112%
CCOc1cc(-c2ccc(F)cc2)c(C2CC2)cc1CN1CCC(N2CCc3nc(C(=O)O)ccc3C2=O)CC1 [Example 54, 6-(1-((2-Cyclopropyl-5-ethoxy-4′-fluorobiphenyl-4-yl)methyl)piperidin-4-yl)-5-oxo-5,6,7,8-tetrahydro-1,6-naphthyridine-2-carboxylic acid]	123%
CCOc1cc(-c2ccc(F)cc2)c(C2CC2)cc1CN1CCC(N2CCc3nc(C(C)C)c(C(=O)O)cc3C2=O)CC1 [Example 49, 6-(1-((2-Cyclopropyl-5-ethoxy-4′-fluorobiphenyl-4-yl)methyl)piperidin-4-yl)-2-isopropyl-5-oxo-5,6,7,8-tetrahydro-1,6-naphthyridine-3-carboxylic acid]	91%
CCCc1nc2c(cc1C(=O)O)C(=O)N(C1CCN(Cc3cc(C4CC4)c(-c4ccc(F)cc4F)cc3OC(C)C)CC1)CC2 [Example 40, 6-(1-((2-Cyclopropyl-2′,4′-difluoro-5-isopropoxybiphenyl-4-yl)methyl)piperidin-4-yl)-5-oxo-2-propyl-5,6,7,8-tetrahydro-1,6-naphthyridine-3-carboxylic acid]	148%
CCOc1nc(-c2ccc(F)cc2)c(C2CC2)cc1CN1CCC(N2CCc3nc(CC)c(C(=O)O)cc3C2=O)CC1 [Example 33, 6-(1-((5-Cyclopropyl-2-ethoxy-6-(4-fluorophenyl)pyridin-3-yl)methyl)piperidin-4-yl)-2-ethyl-5-oxo-5,6,7,8-tetrahydro-1,6-naphthyridine-3-carboxylic acid]	123%

Continued, values first:

inhibition at 1 µM	Compound
92%	CCCc1nc2c(cc1C(=O)O)C(=O)N(C1CCN(Cc3cc(OCC)c(-c4ccc(F)c(F)c4)c(C4CC4)c3)CC1)CC2 [Example 62, 6-(1-((2-Cyclopropyl-6-ethoxy-3′,4′-difluorobiphenyl-4-yl)methyl)piperidin-4-yl)-5-oxo-2-propyl-5,6,7,8-tetrahydro-1,6-naphthyridine-3-carboxylic acid]
99%	CCCc1nc2c(cc1C(=O)O)C(=O)N(C1CCN(Cc3cc(C4CC4)c(C4CCC4)cc3OC(C)C)CC1)CC2 [Example 41, 6-(1-(4-Cyclobutyl-5-cyclopropyl-2-isopropoxybenzyl)piperidin-4-yl)-5-oxo-2-propyl-5,6,7,8-tetrahydro-1,6-naphthyridine-3-carboxylic acid]
97%	CCCc1nc2c(cc1C(=O)O)C(=O)N(C1CCN(Cc3cc(OC(C)C)c(-c4ccc(F)cc4)c(C4CC4)c3)CC1)CC2 [Example 63, 6-(1-((2-Cyclopropyl-4′-fluoro-6-isopropoxybiphenyl-4-yl)methyl)piperidin-4-yl)-5-oxo-2-propyl-5,6,7,8-tetrahydro-1,6-naphthyridine-3-carboxylic acid]
99%	CC(C)Oc1cc(-c2ccc(F)cc2)c(C2CC2)cc1CN1CCC(N2CCc3nc(C(C)C)c(C(=O)O)cc3C2=O)CC1 [Example 50, 6-(1-((2-Cyclopropyl-4′-fluoro-5-isopropoxybiphenyl-4-yl)methyl)piperidin-4-yl)-2-isopropyl-5-oxo-5,6,7,8-tetrahydro-1,6-naphthyridine-3-carboxylic acid]
118%	CCOc1cc(-c2ccc(F)cc2)c(C2CC2)cc1CN1CCC(N2CCc3ccc(C(=O)O)nc3C2=O)CC1 [Example 31, 7-(1-((2-Cyclopropyl-5-ethoxy-4′-fluorobiphenyl-4-yl)methyl)piperidin-4-yl)-8-oxo-5,6,7,8-tetrahydro-1,7-naphthyridine-2-carboxylic acid]
99%	CCOc1cc(CN2CCC(N3CCc4nc(CC)c(C(=O)O)cc4C3=O)CC2)cc(C2CC2)c1-c1ccc(F)cc1 [Example 45, 6-(1-((2-Cyclopropyl-6-ethoxy-4′-fluorobiphenyl-4-yl)methyl)piperidin-4-yl)-2-ethyl-5-oxo-5,6,7,8-tetrahydro-1,6-naphthyridine-3-carboxylic acid]
97%	CCOc1cc(CN2CCC(N3CCc4nc(C)c(C(=O)O)cc4C3=O)CC2)cc(C2CC2)c1-c1ccc(F)c(F)c1 [Example 8, 6-(1-((2-Cyclopropyl-6-ethoxy-3′,4′-difluorobiphenyl-4-yl)methyl)piperidin-4-yl)-2-methyl-5-oxo-5,6,7,8-tetrahydro-1,6-naphthyridine-3-carboxylic acid]
110%	CCOc1cc(C2CCC2)c(C2CC2)cc1CN1CCC(N2CCc3ncc(C(=O)O)cc3C2=O)CC1 [Example 30, 6-(1-(4-Cyclobutyl-5-cyclopropyl-2-ethoxybenzyl)piperidin-4-yl)-5-oxo-5,6,7,8-tetrahydro-1,6-naphthyridine-3-carboxylic acid]
